Columns and labels:
[1] = system: C57BL/6J male mice; type: in vivo, mouse; conditions: mice; pretreatment before doxorubicin
Protocol: (§1) Recombinant human GDF15/MIC-1 protein (CHO-derived) was purchased from PeproTech Inc. (Cranbury, USA) and described in Example 1. […] For in vitro studies, solid lyophilized powder of these two drugs were solubilized at the recommended concentrations in sterile water, and separate aliquots were made and frozen until thawing prior to addition to cell cultures. For in vivo studies, all agents were dissolved in […] normal saline according to the required concentrations (doxorubicin, 5 mg/kg; GDF15, 0.5 mg/kg; dexrazoxane, […]), and the final volume of each intraperitoneal injection was 100 μl. The recommended dose ratio of dexrazoxane to doxorubicin was 10 to 1. In the following examples, 5 mg/kg of doxorubicin was used which correspond to 50 mg/kg of dexrazoxane. The FDA recommends that dexrazoxane be injected within 0.5 hour prior to doxorubicin infusion in individuals. This was followed in the same manner when applying to the test animals.
To induce cardiotoxicity in the mouse, four weekly intraperitoneal injections of doxorubicin at 5 mg/kg were administered. After one dose of doxorubicin at 5-6 mg/kg in a mouse, the level of exposure has been estimated to be similar to that of a human individual being given a standard dose of doxorubicin at approximately 60 mg/m^2. Previous studies have shown that mice injected with doxorubicin once a week at 5 mg/kg for four weeks developed cardiotoxicity, as evidenced by decreased ventricular ejection fraction, cardiomyocyte apoptosis, histopathological changes consistent with doxorubicin-induced myocardial damage, and increased mortality rate, compared with the control group.
The hearts of mice were collected after sacrifice and fixed in 4% paraformaldehyde overnight, followed by paraffin embedding. Afterwards the hearts were cut into 4 μm thick slices. Sections were deparaffinized and rehydrated using sequential immersion in 100% alcohol, 95% alcohol and 70% alcohol for 15 minutes each. […]

[2] = system: C57BL/6J male mice; type: in vivo, mouse; conditions: mice; pretreatment before doxorubicin, versus doxorubicin only
Protocol: as §1
(§2) To induce cardiotoxicity in the mouse, four weekly intraperitoneal injections of doxorubicin at 5 mg/kg were administered. After one dose of doxorubicin at 5-6 mg/kg in a mouse, the level of exposure has been estimated to be similar to that of a human individual being given a standard dose of doxorubicin at approximately 60 mg/m^2. […]
The image processing and analysis software, ImageJ version 1.53K, was used for evaluation of histopathology from mouse experiments. For Masson's trichrome staining, the acquired images were converted from color to grayscale using ImageJ, the blue-stained collagen were segmented (separated) using thresholding, and the threshold areas in a representative microscopic field were quantified. […] Cells containing brown staining (TUNEL-positive cells) were counted in a representative microscopic field for each mouse in each group.

[3] = system: C57BL/6J male mice; experiment: TUNEL staining of mouse myocardium (cardiomyocyte apoptosis); type: in vivo; conditions: pretreatment before doxorubicin
Protocol: as §1, §2

[4] = system: hESC-CMs; experiment: α-actinin immunostaining for sarcomeric integrity; type: cell-based, human; conditions: hESC-CMs; agent only, no doxorubicin
Protocol: hESC-CMs were permeabilized using 0.1% Triton X-100 (Thermo Fisher Scientific, USA). After permeabilizing for 15 minutes, cells were washed three times in PBS, and further permeabilization was blocked by incubating cells in PBS with 10% FBS (Hyclone, USA) for 1 hour at room temperature. Cells were incubated with the primary anti-actinin antibody (1:400) (Abcam, UK) and diluted in PBS with 10% FBS overnight. Cells were then washed three times with PBS and incubated with a goat anti-mouse IgG1 secondary antibody (1:1000 diluted in PBS with 10% FBS) (Thermo Fisher Scientific, USA) for 1 hour at room temperature. Finally, cells were washed twice with PBS and mounted using ibidi mounting medium with DAPI (Ibidi, Germany). Microscopic images were acquired using the DMi8s Research Inverted Thunder Imager Live Cell System (Leica, Germany) at 20×, 40×, and 100× magnification.

[5] = system: C57BL/6J male mice; experiment: Noninvasive blood pressure in mouse doxorubicin cardiotoxicity model; type: in vivo; conditions: for Day 28 DBP / Day 28 SBP: after doxorubicin 5 mg/kg intraperitoneal once weekly for four weeks (Dox + groups); for Day 28 DBP / Day 28 SBP / Day 0 DBP / Day 0 SBP: n = 4 per group; for Day 0 DBP / Day 0 SBP: before doxorubicin administration
Source text: Recombinant human GDF15/MIC-1 protein (CHO-derived) was purchased from PeproTech Inc. (Cranbury, USA) and described in Example 1. […] PubChem identifier number 71384) were purchased from Abcam (Cambridge, UK). For in vitro studies, solid lyophilized powder of these two drugs were solubilized at the recommended concentrations in sterile water, and separate aliquots were made and frozen until thawing prior to addition to cell cultures. […] The recommended dose ratio of dexrazoxane to doxorubicin was 10 to 1. In the following examples, 5 mg/kg of doxorubicin was used which correspond to 50 mg/kg of dexrazoxane. The FDA recommends that dexrazoxane be injected within 0.5 hour prior to doxorubicin infusion in individuals. This was followed in the same manner when applying to the test animals. Ten- to twelve-week old C57BL/6J male mice were purchased from the Laboratory Animal Services Centre of CUHK. They were maintained in specific pathogen-free facility of the CUHK Laboratory Animal Services Centre Research Unit at Prince of Wales Hospital with free access to food and water and maintained in a light/night cycle of 12 hours/12 hours. All mice were fed a standard diet. Blood pressure of animals was measured using the noninvasive CODA® High Throughput System (Torrington, USA) in accordance with the manufacturer's instructions. Measurement platform was prewarmed and maintained at 33-35° C. O-cuffs and VPR-cuffs were used as instructed. Blood pressure of each mouse was measured for at least three cycles. Mice were released and returned to their cages immediately after measurement. Blood pressure was measured twice, once at the beginning of the experiment and once before sacrifice. To induce cardiotoxicity in the mouse, four weekly intraperitoneal injections of doxorubicin at 5 mg/kg were administered. After one dose of doxorubicin at 5-6 mg/kg in a mouse, the level of exposure has been estimated to be similar to that of a human individual being given a standard dose of doxorubicin at approximately 60 mg/m^2.

`C[C@@H](CN1CC(=O)NC(=O)C1)N1CC(=O)NC(=O)C1.Cl` [Dex, 4,4′-[(1S)-1-Methyl-1,2-ethanediyl]bis-2,6-piperazinedione hydrochloride, reference compound] was tested. Which “myocardial histopathology (hematoxylin and eosin)” value [1] did it give?
Its value is “similarly improved”.

And the “cardiac fibrosis (Masson's trichrome)” value [2]?
Its value is “visually and quantitatively reduced”.

And the “cardiomyocyte death by apoptosis (TUNEL staining)” value [3]?
The value was “reduced extent of cardiomyocyte death by apoptosis”.

What about the “sarcomere structure (α-actinin immunostaining)” value [4] of the same molecule?
Its value is “well-organized, striated sarcomeres”.

What about the “Day 28 DBP” value [5] of the same molecule?
The value was 84 ± 15 mmHg.

What about the “Day 28 SBP” value [5] of the same molecule?
The value was 108 ± 13 mmHg.

And the “Day 0 DBP” value [5]?
Its value is 78 ± 26 mmHg.

And the “Day 0 SBP” value [5]?
Its value is 114 ± 14 mmHg.

B1: GDF15 + Dox: mice given recombinant human GDF15 pretreatment followed by doxorubicin (protein, UniProt Q99988 195-308, looked up)
Growth/differentiation factor …: ARARNGDHCPLGPGRCCRLHTVRASLEDLGWADWVLSPREVQVTMCIGACPSQFRAANMHAQIKTSLHRLKPDTVPAPCCVPASYNPMVLIQKTDTGVSLQTYDDLLAKDCHCI
modifications: given with doxorubicin
B1 was tested. Which “systolic and diastolic blood pressures compared with Dex+Dox group” value ([5]; Day 28) did it give?
The value was “lower than that of Dex+Dox treatment group”.

What about the “Day 28 DBP” value [5] of the same molecule?
The value was 85 ± 13 mmHg.

What about the “Day 28 SBP” value [5] of the same molecule?
The value was 111 ± 15 mmHg.

And the “Day 0 DBP” value [5]?
Its value is 76 ± 25 mmHg.

And the “Day 0 SBP” value [5]?
Its value is 108 ± 27 mmHg.

Reference: patent publication US12209112B2, “Methods of preventing or treating diseases, conditions, or disorders associated with chemotherapy” (The Chinese University of Hong Kong, priority 2022, dated 2025)
